Measurements reported in ChEMBL document CHEMBL1143211, “Inhibitors of proteases and amide hydrolases that employ an alpha-ketoheterocycle as a key enabling functionality” (Bioorg Med Chem, 2008).
One block for each molecule: values may come before it. Where a SMILES comes first, the peptide text is derived from it. [ ]: non-standard residue; d: D form. The star is where a group is joined. Nle = CCCC[C@H](N)C(=O)O; Bz = O=C(c1ccccc1)*

Legend:
Prothrombin = Prothrombin (Homo sapiens, UniProt P00734); assay: Inhibition of human alpha-thrombin
[1] = Oral bioavailability in rat; type: ADME, organism-based; settings: in vivo
rhinovirus B14 = assay: Antiviral activity against human rhinovirus 14; type: functional, organism-based; settings: Rhinovirus B
[2] = Inhibition of human rhinovirus 14 3C protease; design: species or system rhinovirus B14
Granzyme B = Granzyme B (Homo sapiens, UniProt P10144); assay: Inhibition of granzyme B
Sequence of Granzyme B (P10144 whole entry): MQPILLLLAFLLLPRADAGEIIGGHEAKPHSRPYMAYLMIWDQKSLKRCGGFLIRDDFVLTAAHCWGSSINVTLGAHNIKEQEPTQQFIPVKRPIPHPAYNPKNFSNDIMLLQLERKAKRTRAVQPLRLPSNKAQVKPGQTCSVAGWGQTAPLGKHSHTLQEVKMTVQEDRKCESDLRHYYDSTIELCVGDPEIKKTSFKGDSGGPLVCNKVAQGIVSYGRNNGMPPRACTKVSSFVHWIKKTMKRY

[3] = molecular target: T1, Fatty-acid amide hydrolase 1 (Homo sapiens, UniProt O00519); assay: Inhibition of human recombinant FAAH
T1 sequence (O00519 whole entry): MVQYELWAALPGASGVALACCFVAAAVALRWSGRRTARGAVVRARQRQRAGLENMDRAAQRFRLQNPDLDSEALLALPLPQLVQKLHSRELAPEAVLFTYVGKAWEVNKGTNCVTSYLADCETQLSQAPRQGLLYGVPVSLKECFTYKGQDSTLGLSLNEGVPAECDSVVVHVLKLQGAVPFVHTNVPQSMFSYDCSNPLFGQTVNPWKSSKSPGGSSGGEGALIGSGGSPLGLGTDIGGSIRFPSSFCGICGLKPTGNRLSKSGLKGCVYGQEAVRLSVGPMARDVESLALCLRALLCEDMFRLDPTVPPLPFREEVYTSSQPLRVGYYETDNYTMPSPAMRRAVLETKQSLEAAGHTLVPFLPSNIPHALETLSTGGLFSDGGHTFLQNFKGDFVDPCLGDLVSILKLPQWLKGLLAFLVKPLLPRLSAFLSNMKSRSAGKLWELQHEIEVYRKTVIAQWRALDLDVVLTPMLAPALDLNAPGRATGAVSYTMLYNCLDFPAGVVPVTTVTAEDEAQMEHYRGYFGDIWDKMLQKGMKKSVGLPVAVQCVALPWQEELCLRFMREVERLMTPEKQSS

Hamster = assay: Efficacy in po dosed hamster acute lung injury model; type: functional; settings: Cricetinae
[4] = Inhibition of trypsin-like activity of human 20S proteasome
[5] = Inhibition of post-glutamyl peptide hydrolase-like activity of human 20S proteasome
[6] = Inhibition of human beta-tryptase
Homo sapiens = species on record: Homo sapiens; assay: Selectivity for human alpha-thrombin over human trypsin
Trypsin = Trypsin (Homo sapiens, UniProt P07477+P07478+P35030); assay: Inhibition of human trypsin; type: protein assay
[7] = Inhibition of bovine trypsin; design: species or system Bos taurus
[8] = Selectivity for human alpha-thrombin over bovine trypsin
Plasma kallikrein = Plasma kallikrein (Homo sapiens, UniProt P03952); assay: Inhibition of kallikrein
Sequence of Plasma kallikrein (P03952 20-390 limits assumed): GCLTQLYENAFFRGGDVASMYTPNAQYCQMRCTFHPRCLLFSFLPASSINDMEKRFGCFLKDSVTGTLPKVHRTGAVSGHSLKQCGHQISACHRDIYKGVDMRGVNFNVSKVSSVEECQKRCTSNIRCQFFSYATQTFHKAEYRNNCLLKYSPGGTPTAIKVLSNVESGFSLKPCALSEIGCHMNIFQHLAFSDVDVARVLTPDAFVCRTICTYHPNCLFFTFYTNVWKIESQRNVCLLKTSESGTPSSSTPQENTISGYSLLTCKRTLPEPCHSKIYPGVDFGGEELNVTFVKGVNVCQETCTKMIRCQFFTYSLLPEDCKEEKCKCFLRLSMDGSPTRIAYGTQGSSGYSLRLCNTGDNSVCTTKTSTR
Sequence of Plasma kallikrein (P03952 391-638 limits assumed): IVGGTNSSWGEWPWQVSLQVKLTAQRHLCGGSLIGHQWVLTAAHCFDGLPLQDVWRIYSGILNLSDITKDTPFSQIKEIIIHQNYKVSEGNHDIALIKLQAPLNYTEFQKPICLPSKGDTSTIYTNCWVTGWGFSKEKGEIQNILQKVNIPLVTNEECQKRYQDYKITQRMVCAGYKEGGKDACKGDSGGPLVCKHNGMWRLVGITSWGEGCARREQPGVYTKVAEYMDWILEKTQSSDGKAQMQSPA

Coagulation factor X = Coagulation factor X (Homo sapiens, UniProt P00742); assay: Inhibition of human factor 10a
Sequence of Coagulation factor X (P00742 41-179 limits assumed): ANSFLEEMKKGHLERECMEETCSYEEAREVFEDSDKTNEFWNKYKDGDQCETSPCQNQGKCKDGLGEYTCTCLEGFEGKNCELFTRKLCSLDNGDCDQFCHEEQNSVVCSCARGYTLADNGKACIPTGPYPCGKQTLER
Sequence of Coagulation factor X (P00742 235-488 limits assumed): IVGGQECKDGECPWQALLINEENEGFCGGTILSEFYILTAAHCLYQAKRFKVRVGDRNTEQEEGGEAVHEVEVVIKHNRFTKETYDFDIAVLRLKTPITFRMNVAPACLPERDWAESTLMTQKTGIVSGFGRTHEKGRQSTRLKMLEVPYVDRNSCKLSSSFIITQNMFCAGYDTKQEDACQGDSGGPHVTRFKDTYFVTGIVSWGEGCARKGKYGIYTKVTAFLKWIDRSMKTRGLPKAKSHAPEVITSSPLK

[9] = Inhibition of dengue virus NS3 protease
[10] = molecular target: T2, Fatty-acid amide hydrolase 1 (Rattus norvegicus, UniProt P97612)
T2 sequence (P97612 whole entry): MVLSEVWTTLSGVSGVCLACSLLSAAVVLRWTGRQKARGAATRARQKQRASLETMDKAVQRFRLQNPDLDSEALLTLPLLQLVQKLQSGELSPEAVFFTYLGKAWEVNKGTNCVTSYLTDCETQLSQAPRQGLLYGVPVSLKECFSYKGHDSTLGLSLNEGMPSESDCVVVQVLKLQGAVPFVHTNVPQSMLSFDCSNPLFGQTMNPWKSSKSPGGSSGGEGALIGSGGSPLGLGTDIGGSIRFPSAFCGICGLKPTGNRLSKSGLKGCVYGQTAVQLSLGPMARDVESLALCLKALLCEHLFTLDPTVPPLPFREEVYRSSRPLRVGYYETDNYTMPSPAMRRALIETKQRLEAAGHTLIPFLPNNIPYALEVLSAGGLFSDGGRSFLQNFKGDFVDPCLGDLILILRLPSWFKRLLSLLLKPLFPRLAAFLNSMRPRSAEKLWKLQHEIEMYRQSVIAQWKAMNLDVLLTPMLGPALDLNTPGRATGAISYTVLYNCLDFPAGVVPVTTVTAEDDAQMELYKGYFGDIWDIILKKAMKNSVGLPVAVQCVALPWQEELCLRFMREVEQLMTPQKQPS

[11] = Selectivity for rat FAAH over triacylglycerol hydrolase
Cathepsin K = molecular target: T3, Cathepsin K (Homo sapiens, UniProt P43235); assay: Inhibition of human recombinant cathepsin K
T3 sequence (P43235 whole entry): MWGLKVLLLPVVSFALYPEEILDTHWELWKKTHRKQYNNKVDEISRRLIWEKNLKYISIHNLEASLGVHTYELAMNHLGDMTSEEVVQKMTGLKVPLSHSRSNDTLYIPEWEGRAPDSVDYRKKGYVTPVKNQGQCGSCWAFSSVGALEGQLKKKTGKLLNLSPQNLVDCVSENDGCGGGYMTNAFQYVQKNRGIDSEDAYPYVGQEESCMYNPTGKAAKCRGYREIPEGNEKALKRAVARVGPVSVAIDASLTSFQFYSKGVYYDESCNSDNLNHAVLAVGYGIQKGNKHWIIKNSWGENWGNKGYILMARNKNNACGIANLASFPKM

Procathepsin L = Procathepsin L (Homo sapiens, UniProt P07711); assay: Inhibition of human recombinant cathepsin L
Sequence of Procathepsin L (P07711 whole entry): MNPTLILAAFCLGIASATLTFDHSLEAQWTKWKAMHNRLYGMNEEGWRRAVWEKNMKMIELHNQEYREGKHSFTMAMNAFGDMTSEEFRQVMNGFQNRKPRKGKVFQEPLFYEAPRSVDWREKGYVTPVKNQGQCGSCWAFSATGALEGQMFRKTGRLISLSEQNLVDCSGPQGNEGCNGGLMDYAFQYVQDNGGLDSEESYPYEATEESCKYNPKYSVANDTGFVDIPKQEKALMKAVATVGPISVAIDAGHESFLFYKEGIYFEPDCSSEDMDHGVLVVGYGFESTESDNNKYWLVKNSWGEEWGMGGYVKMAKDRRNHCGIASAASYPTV

Cathepsin S = Cathepsin S (Homo sapiens, UniProt P25774); assay: Inhibition of human recombinant cathepsin S
Sequence of Cathepsin S (P25774 whole entry): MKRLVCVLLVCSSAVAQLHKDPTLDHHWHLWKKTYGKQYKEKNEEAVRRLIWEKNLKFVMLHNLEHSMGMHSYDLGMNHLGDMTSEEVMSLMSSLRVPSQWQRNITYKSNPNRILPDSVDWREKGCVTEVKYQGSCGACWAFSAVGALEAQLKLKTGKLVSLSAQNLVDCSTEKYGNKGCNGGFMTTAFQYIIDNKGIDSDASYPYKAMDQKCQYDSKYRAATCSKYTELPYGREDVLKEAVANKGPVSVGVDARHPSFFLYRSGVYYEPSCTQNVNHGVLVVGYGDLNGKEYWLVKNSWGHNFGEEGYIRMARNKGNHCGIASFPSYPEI

Cathepsin B = Cathepsin B (Homo sapiens, UniProt P07858); assay: Inhibition of human liver cathepsin B

Ki (Prothrombin): 0.85 nM
bioavailability [1]: 2%
Compound: N=C(N)NCCC[C@H](NC(=O)[C@@H]1CC[C@@H]2CC[C@@](N)(Cc3ccccc3)C(=O)N21)C(=O)c1nc2ccccc2s1

EC50 (rhinovirus B14): 7900 nM
Compound: CC(C)C[C@H](NC(=O)OCc1ccccc1)C(=O)N[C@@H](Cc1ccccc1)C(=O)N[C@@H](C[C@H]1CCNC1=O)C(=O)c1nccs1
Ki [2]: 700 nM

Ki (Granzyme B): 85 nM
Compound: CC[C@H](C)[C@H](NC(C)=O)C(=O)N[C@H]1CCc2cccc3c2N(C1=O)[C@H](C(=O)N[C@@H](CC(=O)O)C(=O)c1nc2ccccc2s1)C3

Ki [3]: 73 nM
Compound: CCCCCCCC/C=C\CCCCCCCC(=O)c1nc2ccccc2o1

Compound: COC(=O)N[C@H](C(=O)N1CCC[C@H]1C(=O)N[C@H](C(=O)c1nn(-c2ccc(N(C)C)cc2)c(=O)o1)C(C)C)C(C)C
ED50 (Hamster): 7.5 mg/kg

EC50 (rhinovirus B14): 4000 nM
Compound: CC(C)C[C@H](NC(=O)OCc1ccccc1)C(=O)N[C@@H](Cc1ccccc1)C(=O)N[C@@H](C[C@H]1CCNC1=O)C(=O)c1ccccn1
Ki [2]: 170 nM

Ki [4]: 290000 nM
Ki [5]: > 300000 nM
Compound: Cc1ccc(S(=O)(=O)N[C@@H](CC(=O)NCC(C)(C)C)C(=O)N[C@@H](C)C(=O)N[C@@H](CC(C)C)C(=O)c2nnc(-c3ccc(N(C)C)cc3)o2)cc1

EC50 (rhinovirus B14): 3200 nM
Compound: CC(C)C[C@H](NC(=O)OCc1ccccc1)C(=O)N[C@@H](Cc1ccccc1)C(=O)N[C@@H](C[C@H]1CCNC1=O)C(=O)c1nc2ccccc2s1
Ki [2]: 65 nM

Ki [6]: 1.5 nM
Selectivity ratio (Homo sapiens): 275
Compound: NCCCC[C@H](NC(=O)c1cc(F)cc(F)c1)C(=O)c1noc(Cc2ccc(C(=O)NCCc3cccc(Cl)c3)cc2)n1

IC50 (Trypsin): 9700 nM
Ki (Prothrombin): 1.2 nM
Ratio Ki (Homo sapiens): 500
Compound: N=C(N)N1CCC[C@@H](C[C@H](NC(=O)CN2C(=O)CN(CCCc3ccccc3)C(=O)[C@H]2Cc2ccccc2Cl)C(=O)c2nccs2)C1

Compound: CC(C)[C@H](NC(=O)Cn1c(-c2ccc(F)cc2)ncc(N)c1=O)C(=O)c1nnc(C(C)(C)c2ccccc2)o1
ED50 (Hamster): 10 mg/kg

Ki [7]: 1300 nM
Ratio Ki [8]: 12000
Compound: CN[C@H](Cc1ccccc1)C(=O)N1CCC[C@H]1C(=O)N[C@@H](CCCNC(=N)N)C(=O)c1cc2ccccc2s1

Compound: N=C(N)NCCC[C@H](NC(=O)[C@@H]1CCN2CC[C@@](N)(Cc3ccccc3)C(=O)N12)C(=O)c1nc2ccccc2s1
Ki (Prothrombin): 0.65 nM
bioavailability [1]: 25%

EC50 (rhinovirus B14): > 10000 nM
Compound: CC(C)C[C@H](NC(=O)OCc1ccccc1)C(=O)N[C@@H](Cc1ccccc1)C(=O)N[C@@H](C[C@H]1CCNC1=O)C(=O)c1cc2ccccc2s1
Ki [2]: 4700 nM

IC50 (Plasma kallikrein): 29 nM
IC50 (Coagulation factor X): 2 nM
Compound: N=C(N)NCCC[C@H](NC(=O)CNC(=O)[C@@H](CCCNC(=N)N)NS(=O)(=O)CCc1ccccc1)C(=O)c1nc2ccccc2s1

Compound: CCCC[C@H](NC(=O)c1ccccc1)C(=O)N[C@@H](CCCCN)C(=O)N[C@@H](CCCNC(=N)N)C(=O)N[C@@H](CCCNC(=N)N)C(=O)c1nccs1
Ki [9]: 43000 nM

bioavailability [1]: 23%
Compound: NCCCC[C@H](NC(=O)[C@@H]1CCCN1C(=O)[C@H](N)CC1CCCCC1)C(=O)c1nccs1

Compound: CCCC[C@H](NC(=O)c1ccccc1)C(=O)N[C@@H](CCCCN)C(=O)N[C@@H](CCCNC(=N)N)C(=O)N[C@H](C=O)CCCNC(=N)N (Bz-[Nle]KRR-aldehyde)
Ki [9]: 5800 nM

IC50 (Plasma kallikrein): 120 nM
IC50 (Coagulation factor X): 1 nM
Compound: N=C(N)NCCC[C@H](NC(=O)CNC(=O)[C@@H](CCCNC(=N)N)NS(=O)(=O)CCc1ccccc1)C(=O)c1nccs1

bioavailability [1]: < 5%
Compound: NCCCC[C@H](NC(=O)[C@@H]1CCCN1C(=O)[C@@H](CC1CCCCC1)NCC(=O)O)C(=O)c1ncco1

Ki [3]: 0.26 nM
Ki [10]: 0.2 nM
Compound: N#Cc1cnc(C(=O)CCc2ccc(-c3ccccc3)cc2)o1

Compound: CCCC[C@H](NC(=O)c1ccccc1)C(=O)N[C@@H](CCCCN)C(=O)N[C@@H](CCCNC(=N)N)C(=O)N[C@H](CCCNC(=N)N)B(O)O
Ki [9]: 43 nM

Compound: Cc1cccc(Cc2nnc(C(=O)[C@@H](NC(=O)Cn3c(-c4ccc(F)cc4)ncc(N)c3=O)C(C)C)o2)c1
ED50 (Hamster): 13 mg/kg

EC50 (rhinovirus B14): 340 nM
Compound: Cc1cc(C(=O)N[C@H](C(=O)N[C@@H](Cc2ccc(F)cc2)C(=O)N[C@@H](C[C@@H]2CCNC2=O)C(=O)c2nc3ccccc3s2)C(C)C)no1
Ki [2]: 4.5 nM

Ki (Granzyme B): 8 nM
Compound: CC[C@H](C)[C@H](NC(C)=O)C(=O)N[C@H]1CCc2cccc3c2N(C1=O)[C@H](C(=O)N[C@H](C=O)CC(=O)O)C3

Ki [3]: 13 nM
Selectivity ratio [11]: 30
Compound: CCCCCCCC/C=C\CCCCCCCC(=O)c1nc2ncccc2o1

Ki [7]: 1.2 nM
Ratio Ki [8]: 10
Compound: CN[C@H](Cc1ccccc1)C(=O)N1CCC[C@H]1C(=O)N[C@@H](CCCN=C(N)N)C(=O)c1nccs1

Ki [6]: 25 nM
Selectivity ratio (Homo sapiens): > 50
Compound: C=CCOC(=O)N[C@@H](CC1CCNC1)C(=O)c1noc(Cc2ccc(C(=O)NC3Cc4ccccc4C3)cc2)n1 (stereo partly drawn)

Compound: CCCC[C@H](NC(=O)c1ccccc1)C(=O)N[C@@H](CCCCN)C(=O)N[C@@H](CCCNC(=N)N)C(=O)N[C@@H](CCCNC(=N)N)C(=O)c1nc2ccccc2o1
Ki [9]: 83000 nM

Ki (Granzyme B): 7 nM
Compound: CC[C@H](C)[C@H](NC(C)=O)C(=O)N[C@H]1CCc2cccc3c2N(C1=O)[C@H](C(=O)N[C@@H](CC(=O)O)C(=O)c1nnc(-c2ccccc2)o1)C3

Ki [7]: 4.4 nM
Ratio Ki [8]: 15
Compound: CN[C@H](Cc1ccccc1)C(=O)N1CCC[C@H]1C(=O)N[C@@H](CCCN=C(N)N)C(=O)c1nc2c(s1)CCCC2

Ki [4]: > 900000 nM
Ki [5]: > 900000 nM
Compound: Cc1ccc(S(=O)(=O)N[C@@H](CC(=O)NCC(C)(C)C)C(=O)N[C@](C)(CO)C(=O)N[C@@H](CC(C)C)C(=O)c2nnc(-c3ccccc3)o2)cc1

Ki [7]: 13 nM
Ratio Ki [8]: 30
Compound: CN[C@H](Cc1ccccc1)C(=O)N1CCC[C@H]1C(=O)N[C@@H](CCCN=C(N)N)C(=O)c1nc2ccccc2o1

Ki (Cathepsin K): 8.5 nM
Ki (Procathepsin L): 70 nM
Ki (Cathepsin S): 30 nM
Ki (Cathepsin B): 7000 nM
Compound: CC(C)C[C@H](NC(=O)C1CCNCC1)C(=O)N[C@@H](CCc1ccccc1)C(=O)c1nc2cc(C(C)(C)C)ccc2o1
